Read-outs that look alike come from different tables or passages of the source.
Assays:
[1] = test system: Daphnia magna (water flea); assay: non-target organism screening, Daphnia cumulative mortality; format: in vivo; conditions: for lethal effect / toxicity towards non-target (Daphnia) organism: at a dose that totally prevents fouling by mussels; for toxicity to other non-target organisms (water fleas, Daphnia magna): summary statement
Description: Those compounds that were determined to be highly efficacious zebra mussel antifoulants with little or no toxicity were additionally assessed for toxicity in another non-target aquatic species. The freshwater cladoceran crustacean Daphnia magna (water flea) is commonly utilized for aquatic toxicity testing (Suedel et al., 1997), with 10,583 tests of toxic end points being reported for this species on the USEPA ECOTOX web site. Three replicates of 20 adult specimens of D. magna were exposed to each compound employing a dose range that was the same or greater than that used in zebra mussel antifouling studies. The conditions for toxicity testing of water fleas were the same as those used for testing zebra mussel antifouling and toxicity (i.e., polypropylene containers at 15° C.), except that test medium volume was 40 ml and exposure was increased to three days. Dead individuals were removed every 24 h and the total number of surviving individuals was recorded at the end of 1, 2, and 3 days. Although the level of Daphnia mortality was too low in most cases, when it was high enough to be reliably estimated then the Daphnia lethal dose values (i.e., LD50) were estimated using the same methods employed in the mussel byssal attachment studies. Uniformity of test organisms was maintained by establishing a laboratory D. magna culture with specimens initially purchased from a biological supply company.

[2] = mixed with paint applied to a surface or applied as a dust; cited from earlier work
zebra mussel = conditions: controlled laboratory setting; cited from earlier work
[3] = test system: zebra mussels (Dreissena polymorpha)
[4] = molecular target: vanilloid receptor 1 (VR1) receptor (Homo sapiens, UniProt Q8NER1); conditions: cited from earlier work
Sequence of vanilloid receptor 1 (VR1) receptor (Q8NER1 whole entry, species assumed): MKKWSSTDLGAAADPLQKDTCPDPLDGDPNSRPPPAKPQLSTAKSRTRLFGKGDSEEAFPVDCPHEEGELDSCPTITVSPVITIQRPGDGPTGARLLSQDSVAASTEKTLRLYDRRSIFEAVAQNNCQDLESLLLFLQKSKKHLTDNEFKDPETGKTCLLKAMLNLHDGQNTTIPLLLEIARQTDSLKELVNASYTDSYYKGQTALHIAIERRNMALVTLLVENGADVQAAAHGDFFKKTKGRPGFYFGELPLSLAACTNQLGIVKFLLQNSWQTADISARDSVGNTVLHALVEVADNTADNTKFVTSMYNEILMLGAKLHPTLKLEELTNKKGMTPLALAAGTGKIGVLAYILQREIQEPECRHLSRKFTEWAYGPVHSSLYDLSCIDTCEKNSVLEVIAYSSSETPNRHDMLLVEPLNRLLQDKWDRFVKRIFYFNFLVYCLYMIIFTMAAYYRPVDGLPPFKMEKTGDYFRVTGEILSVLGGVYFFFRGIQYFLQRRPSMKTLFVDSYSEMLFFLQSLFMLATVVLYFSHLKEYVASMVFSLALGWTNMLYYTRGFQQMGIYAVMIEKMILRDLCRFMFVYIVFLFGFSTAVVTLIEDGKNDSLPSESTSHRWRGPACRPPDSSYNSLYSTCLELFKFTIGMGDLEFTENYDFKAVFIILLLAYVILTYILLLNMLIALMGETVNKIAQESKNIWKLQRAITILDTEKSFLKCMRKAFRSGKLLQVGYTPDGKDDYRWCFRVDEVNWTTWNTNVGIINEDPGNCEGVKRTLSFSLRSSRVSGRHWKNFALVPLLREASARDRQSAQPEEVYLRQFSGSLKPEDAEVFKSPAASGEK

[5] = single high concentration (e.g., 30 μM), 48 h, FIG. 4 and FIG. 6
[6] = single high concentration (e.g., 30 μM), second 48 h post-exposure / both periods

Structure (SMILES) | lethal effect / toxicity towards non-target (Daphnia) organism [1] | residual effect to the target organism ([3]; in vivo) | zebra mussel antifouling efficacy ([3]; in vivo) | antifouling efficacy (fraction of unattached mussels during the first 48 h) ([3]; in vivo) | target organism residual effects ("toxicity") or lethality ([3]; in vivo) | also measured
COc1cc(CNC(=O)CCCC/C=C/C(C)C)ccc1O (racemic) [capsaicin, reference compound] | no toxicity | little residual effect | efficacious |  |  | toxicity to other non-target organisms (water fleas, Daphnia magna) [1]: reduced toxicity; antifouling effectiveness compared with copper [2]: not as effective as copper; zebra mussel antifoulant effect (zebra mussel): effective; toxicity to the target organism (zebra mussels) ([3]; in vivo): reduced toxicity
COc1ccc(C(=O)c2c(C)n(CCN3CCOCC3)c3cc(I)ccc23)cc1 [AM630] | no significant lethality | some residual effect | efficacious | efficacious | minimal | dose that totally prevents fouling by mussels ([3]; in vivo): 4 µM
CCCCCCC(C)(C)c1ccc([C@@H]2C[C@H](O)CC[C@@H]2CCCO)c(O)c1 [CP55,940] |  |  |  |  |  | antifouling efficacy (fraction of unattached mussels during the first 48 h) [3, 5]: efficacious; target organism residual effects ("toxicity") or lethality [3, 6]: minimal
CCCCC/C=C\C/C=C\CCCCCCCC(=O)NCCO [Linoleyl ethanolamide] |  |  |  | efficacious | minimal | 
CCCCCCCCCC(=O)NC(CC)CO (centres unmarked) [N-(1-(hydroxymethyl)propyl)decanamide] |  |  |  | efficacious | minimal | 
CCCCCCCCCCCC(=O)NCC(=O)NN=Cc1ccc(OC)c(OC)c1 [N-(2-(2-(3,4-dimethoxybenzylidene)hydrazine)-2-oxoethyl)dodecanamide] |  |  |  | efficacious | minimal | 
CC1=CC[C@H]2[C@@H](C1)c1c(O)cc(CC#CCCCNS(C)(=O)=O)cc1OC2(C)C [O-2050] | no lethal effect |  | efficacious | efficacious | minimal | residual effect at a dose that totally prevents biofouling ([3]; 6 μM): no residual effect; antifouling potency ([3]; in vivo): higher potency; dose that totally prevents fouling by mussels ([3]; in vivo): 6 µM
CCCCC/C=C\C/C=C\C/C=C\C/C=C\CCCC(=O)NCCO [anandamide] | no lethal effect | no residual effect | efficacious | efficacious | minimal | toxicity to other non-target organisms (water fleas, Daphnia magna) [1]: reduced toxicity; dose that totally prevents fouling by mussels ([3]; in vivo): 15 µM; toxicity to the target organism (zebra mussels) ([3]; in vivo): reduced toxicity
COc1cc(CNC(=O)CCCC/C=C/C(C)C)ccc1O [compound 28, 8-methyl-N-vanillyl-trans-6-nonenamide] |  |  |  | efficacious | minimal | toxicity of the stereoisomer towards the non-target (Daphnia) organism ([1]; inferred from the result for racemic capsaicin): neither stereoisomer (E or Z) is toxic
COc1cc(CNC(=O)CCCC/C=C\C(C)C)ccc1O [compound 29] |  |  |  | efficacious | minimal | action on the vanilloid receptor 1 (VR1) receptor [4]: does not act on; attachment of zebra mussels to aquatic striatum ([3]; in vivo): prevents the attachment; toxicity to the target organism ([3]; in vivo): non-toxic
CCCCC/C=C\C/C=C\C/C=C\C/C=C\CCCCOC(CO)CO [noladin ether] |  |  |  |  |  | antifouling efficacy (fraction of unattached mussels during the first 48 h) [3, 5]: efficacious; target organism residual effects ("toxicity") or lethality [3, 6]: minimal
CCCCCCCCC(=O)NCc1ccc(O)c(OC)c1 [pseudocapsaicin, N-vanillylnonanamide] | not lethal | little residual effect | efficacious |  |  | Daphnia toxicity over controls ([1]; 72 h exposure, 20 and 30 μM): no measurable toxicity over controls; lethal effect / toxicity towards non-target (Daphnia) organism ([1]; listed as N-vanillylnonanamide): no significant toxicity; Daphnia mortality ([1]; highest test dose (60 μM), 72 h time point): Statistically significant Daphnia mortality; toxicity to other non-target organisms (water fleas, Daphnia magna) [1]: reduced toxicity; antifouling ([3]; 20 μM): 100%; antifouling ([3]; 30 μM): 100%; toxicity to the target organism (zebra mussels) ([3]; in vivo): reduced toxicity
